According to US11203601B2, “Tricyclic compounds as glycogen synthase kinase 3 (GSK3) inhibitors and uses thereof” (The Broad Institute, Inc., priority 2017, dated 2021):

What was measured:
Assay in all cases: Carna kinome panel
Format in all cases: biochemical
Details in all cases: read-out: % Inhibition at 10 μM of the test compound
PKCα = PKCα (Homo sapiens (Human), UniProt P17252)
PDGFRα = PDGFRα (Homo sapiens (Human), UniProt P16234)
FLT1 = FLT1 (Homo sapiens (Human), UniProt P17948)
MSK1 = MSK1 (Homo sapiens (Human), UniProt O75582)
FAK = FAK (Homo sapiens (Human), UniProt Q05397)
MSK2 = MSK2 (Homo sapiens (Human), UniProt O75676)
PKCγ = PKCγ (Homo sapiens (Human), UniProt P05129)
PKD2 = PKD2 (Homo sapiens (Human), UniProt Q9BZL6)
KIT(V654A) = KIT(V654A) (Homo sapiens (Human), UniProt P10721, V654A)
PKACα = PKACα (Homo sapiens (Human), UniProt P17612)
NEK6 = NEK6 (Homo sapiens (Human), UniProt Q9HC98)
Chain of NEK6 (Q9HC98 whole entry): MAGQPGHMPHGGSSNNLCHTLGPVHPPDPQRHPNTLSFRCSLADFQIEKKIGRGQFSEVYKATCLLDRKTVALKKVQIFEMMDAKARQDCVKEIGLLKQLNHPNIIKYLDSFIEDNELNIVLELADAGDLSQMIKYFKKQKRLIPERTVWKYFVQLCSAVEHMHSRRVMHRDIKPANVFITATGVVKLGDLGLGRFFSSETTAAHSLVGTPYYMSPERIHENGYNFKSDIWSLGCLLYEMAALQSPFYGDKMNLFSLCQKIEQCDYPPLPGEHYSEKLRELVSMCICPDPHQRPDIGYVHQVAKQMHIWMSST

ALK(L1196M) = ALK(L1196M) (Homo sapiens (Human), UniProt Q9UM73, L1196M)
Chain of ALK(L1196M) (Q9UM73 19-1620 L1196M): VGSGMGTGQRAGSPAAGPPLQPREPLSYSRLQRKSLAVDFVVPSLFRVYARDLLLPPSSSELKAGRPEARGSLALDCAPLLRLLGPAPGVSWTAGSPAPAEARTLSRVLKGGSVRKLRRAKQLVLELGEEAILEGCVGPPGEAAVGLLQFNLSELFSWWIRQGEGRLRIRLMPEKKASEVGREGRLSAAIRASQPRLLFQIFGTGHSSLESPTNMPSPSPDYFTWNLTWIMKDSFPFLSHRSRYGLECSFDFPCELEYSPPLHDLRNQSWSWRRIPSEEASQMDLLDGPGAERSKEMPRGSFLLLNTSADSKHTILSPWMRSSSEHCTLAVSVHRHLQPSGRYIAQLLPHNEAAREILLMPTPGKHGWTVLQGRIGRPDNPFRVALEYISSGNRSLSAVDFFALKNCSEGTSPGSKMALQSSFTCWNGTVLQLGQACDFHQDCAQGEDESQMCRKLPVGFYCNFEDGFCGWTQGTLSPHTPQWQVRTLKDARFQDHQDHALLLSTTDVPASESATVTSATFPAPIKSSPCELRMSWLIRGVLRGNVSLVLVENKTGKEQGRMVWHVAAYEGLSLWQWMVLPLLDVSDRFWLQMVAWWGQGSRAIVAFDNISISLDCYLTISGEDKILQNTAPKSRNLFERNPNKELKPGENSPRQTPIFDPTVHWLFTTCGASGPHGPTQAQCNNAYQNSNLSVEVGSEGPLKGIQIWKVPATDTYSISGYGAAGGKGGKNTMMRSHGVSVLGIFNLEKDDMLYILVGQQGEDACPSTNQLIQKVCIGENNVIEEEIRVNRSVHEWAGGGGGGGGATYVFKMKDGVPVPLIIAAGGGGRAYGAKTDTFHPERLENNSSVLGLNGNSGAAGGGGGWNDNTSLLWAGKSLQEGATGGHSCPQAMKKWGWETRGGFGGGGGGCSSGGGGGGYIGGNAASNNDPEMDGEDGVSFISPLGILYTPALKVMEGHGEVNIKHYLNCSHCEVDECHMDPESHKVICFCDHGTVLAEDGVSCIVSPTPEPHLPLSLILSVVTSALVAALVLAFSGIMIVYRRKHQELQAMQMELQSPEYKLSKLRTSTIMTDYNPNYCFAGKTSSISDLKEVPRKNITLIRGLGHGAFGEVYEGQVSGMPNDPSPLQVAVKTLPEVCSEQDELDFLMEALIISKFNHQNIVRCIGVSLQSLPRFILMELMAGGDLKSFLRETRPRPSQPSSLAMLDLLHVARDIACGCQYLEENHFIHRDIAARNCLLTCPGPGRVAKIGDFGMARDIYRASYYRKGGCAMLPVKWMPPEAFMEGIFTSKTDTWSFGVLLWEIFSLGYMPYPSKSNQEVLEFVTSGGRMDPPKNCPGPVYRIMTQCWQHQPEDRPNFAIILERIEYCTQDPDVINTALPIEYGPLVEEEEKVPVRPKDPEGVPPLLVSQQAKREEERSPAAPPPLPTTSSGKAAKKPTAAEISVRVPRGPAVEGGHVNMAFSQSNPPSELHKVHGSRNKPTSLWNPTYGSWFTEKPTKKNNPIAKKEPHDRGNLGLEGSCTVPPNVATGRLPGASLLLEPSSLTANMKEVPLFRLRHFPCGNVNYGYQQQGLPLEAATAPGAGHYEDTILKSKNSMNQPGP

MAP2K2_Cascade = MAP2K2_Cascade (Homo sapiens (Human), UniProt P36507)
ALK(C1156Y) = ALK(C1156Y) (Homo sapiens (Human), UniProt Q9UM73, C1156Y)
Chain of ALK(C1156Y) (Q9UM73 19-1620 C1156Y): as the sequence (Q9UM73 19-1620 L1196M) above, with C1138Y, M1178L counted along it

AMPKα2/β1/γ1 = AMPKα2/β1/γ1 (Homo sapiens (Human), UniProt P54646)
MINK = MINK (Homo sapiens (Human), UniProt Q8N4C8)
RON = RON (Homo sapiens (Human), UniProt Q04912)
DDR2 = DDR2 (Homo sapiens (Human), UniProt Q16832)
BRAF_Cascade = BRAF_Cascade (Homo sapiens (Human), UniProt P15056)
Chain of BRAF_Cascade (P15056 whole entry): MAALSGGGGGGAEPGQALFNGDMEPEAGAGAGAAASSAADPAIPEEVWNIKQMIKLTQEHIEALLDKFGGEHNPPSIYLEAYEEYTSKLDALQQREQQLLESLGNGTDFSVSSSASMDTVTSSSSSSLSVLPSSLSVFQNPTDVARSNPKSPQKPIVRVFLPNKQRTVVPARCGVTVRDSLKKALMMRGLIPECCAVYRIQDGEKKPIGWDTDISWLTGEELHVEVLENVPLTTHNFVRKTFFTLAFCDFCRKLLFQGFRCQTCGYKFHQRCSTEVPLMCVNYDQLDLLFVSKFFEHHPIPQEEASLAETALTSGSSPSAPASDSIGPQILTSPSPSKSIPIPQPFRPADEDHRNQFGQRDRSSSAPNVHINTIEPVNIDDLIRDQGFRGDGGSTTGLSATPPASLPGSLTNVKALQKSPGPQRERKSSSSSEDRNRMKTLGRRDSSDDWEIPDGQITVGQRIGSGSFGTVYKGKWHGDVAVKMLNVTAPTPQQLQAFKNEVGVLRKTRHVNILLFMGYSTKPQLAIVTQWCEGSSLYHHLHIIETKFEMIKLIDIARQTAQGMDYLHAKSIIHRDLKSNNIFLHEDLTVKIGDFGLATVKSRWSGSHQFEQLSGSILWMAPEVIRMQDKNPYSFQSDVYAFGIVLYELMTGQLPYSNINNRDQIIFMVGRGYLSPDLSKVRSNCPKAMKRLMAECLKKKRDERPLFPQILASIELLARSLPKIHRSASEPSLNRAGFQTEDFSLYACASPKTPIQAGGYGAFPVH

BRSK2 = BRSK2 (Homo sapiens (Human), UniProt Q8IWQ3)
MAP4K2 = MAP4K2 (Homo sapiens (Human), UniProt Q12851)
CK2α2/β = CK2α2/β (Homo sapiens (Human), UniProt P19784)
Method: Briefly, a selection of compounds was screened against a panel of kinases at a single concentration of 10 μM. […] This was completed using one of two assays, depending on the kinase being examined: 1) IMAP Assay. A solution of 4× inhibitor, 4× substrate/ATP/metal solution and 2× kinase solution was prepared with assay buffer (20 mM HEPES, 0.01% Tween-20, 2 mM DTT, pH 7.4) and mixed, then incubated in 384-well black plates for 1 hour at room temperature. The IMAP binding reagent (IMAP Screening Express kit; Molecular Devices) was added to each well and incubated for 30 minutes. […] 2) Off-Chip Mobility Shift Assay (MSA). A solution of 4× inhibitor, 4× substrate/ATP/metal solution and 2× kinase solution was prepared with assay buffer (20 mM HEPES, 0.01% Triton X-100, 2 mM DTT, pH 7.5) and mixed, then incubated in 384-well plates for 1 or 5 hours depending on the kinase, at room temperature. Termination buffer (QuickScout Screening assist MSA; Carna Biosciences) was added to each well. The entire reaction mixture was then applied to a LabChip3000 system (Caliper Life Science), and the product and substrate peptide peaks were separated and quantified. […] The entire reaction mixture was then applied to a LabChip3000 system (Caliper Life Science), and the product and substrate peptide peaks were separated and quantified.

p38β = p38β (Homo sapiens (Human), UniProt Q15759)
Chain of p38β (Q15759 whole entry, looked up): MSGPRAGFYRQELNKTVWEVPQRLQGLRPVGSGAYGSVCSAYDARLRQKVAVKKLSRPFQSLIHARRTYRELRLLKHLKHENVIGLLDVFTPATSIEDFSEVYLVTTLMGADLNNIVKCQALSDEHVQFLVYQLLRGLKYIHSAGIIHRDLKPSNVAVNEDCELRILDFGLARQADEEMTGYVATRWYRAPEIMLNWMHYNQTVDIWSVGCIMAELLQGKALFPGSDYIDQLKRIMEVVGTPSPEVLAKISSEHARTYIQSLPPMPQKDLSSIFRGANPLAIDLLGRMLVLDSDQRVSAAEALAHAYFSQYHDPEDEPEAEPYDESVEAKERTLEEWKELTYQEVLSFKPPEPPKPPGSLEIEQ

TRKB = TRKB (Homo sapiens (Human), UniProt Q16620)
ALK(R1275Q) = ALK(R1275Q) (Homo sapiens (Human), UniProt Q9UM73, R1275Q)
AurC = AurC (Homo sapiens (Human), UniProt Q9UQB9)
AKT2 = AKT2 (Homo sapiens (Human), UniProt P31751)
Chain of AKT2 (P31751 whole entry, species assumed): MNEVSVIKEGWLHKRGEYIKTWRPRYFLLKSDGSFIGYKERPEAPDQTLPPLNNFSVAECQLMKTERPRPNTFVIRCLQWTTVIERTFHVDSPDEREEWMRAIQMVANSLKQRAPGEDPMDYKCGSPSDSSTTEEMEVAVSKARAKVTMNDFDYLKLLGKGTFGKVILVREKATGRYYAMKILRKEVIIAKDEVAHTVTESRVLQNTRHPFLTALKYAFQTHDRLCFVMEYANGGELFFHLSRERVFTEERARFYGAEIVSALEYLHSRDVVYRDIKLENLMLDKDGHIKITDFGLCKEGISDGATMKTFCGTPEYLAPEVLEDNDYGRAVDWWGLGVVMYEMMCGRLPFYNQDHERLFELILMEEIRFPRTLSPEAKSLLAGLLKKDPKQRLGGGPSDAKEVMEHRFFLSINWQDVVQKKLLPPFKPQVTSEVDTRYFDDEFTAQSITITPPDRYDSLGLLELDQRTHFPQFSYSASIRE

PKCβ2 = PKCβ2 (Homo sapiens (Human), UniProt P05771)
ABL(E255K) = ABL(E255K) (Homo sapiens (Human), UniProt P00519, E255K)
MNK2 = MNK2 (Homo sapiens (Human), UniProt Q9HBH9)
Chain of MNK2 (Q9HBH9 whole entry): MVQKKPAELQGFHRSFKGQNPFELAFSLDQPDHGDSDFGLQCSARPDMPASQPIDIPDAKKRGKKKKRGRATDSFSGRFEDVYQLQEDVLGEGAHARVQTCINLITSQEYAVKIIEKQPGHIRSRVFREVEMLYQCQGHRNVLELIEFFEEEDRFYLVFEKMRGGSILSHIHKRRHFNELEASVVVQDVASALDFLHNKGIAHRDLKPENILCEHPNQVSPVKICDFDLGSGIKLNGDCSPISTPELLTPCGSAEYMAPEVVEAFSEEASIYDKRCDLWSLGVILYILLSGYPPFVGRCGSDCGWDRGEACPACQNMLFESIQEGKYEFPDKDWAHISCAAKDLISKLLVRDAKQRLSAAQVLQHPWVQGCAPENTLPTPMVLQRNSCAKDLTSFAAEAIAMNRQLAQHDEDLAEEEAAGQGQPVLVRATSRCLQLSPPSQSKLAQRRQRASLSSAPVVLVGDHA

Haspin = Haspin (Homo sapiens (Human), UniProt Q8TF76)
DYRK3 = DYRK3 (Homo sapiens (Human), UniProt O43781)
Chain of DYRK3 (O43781 whole entry): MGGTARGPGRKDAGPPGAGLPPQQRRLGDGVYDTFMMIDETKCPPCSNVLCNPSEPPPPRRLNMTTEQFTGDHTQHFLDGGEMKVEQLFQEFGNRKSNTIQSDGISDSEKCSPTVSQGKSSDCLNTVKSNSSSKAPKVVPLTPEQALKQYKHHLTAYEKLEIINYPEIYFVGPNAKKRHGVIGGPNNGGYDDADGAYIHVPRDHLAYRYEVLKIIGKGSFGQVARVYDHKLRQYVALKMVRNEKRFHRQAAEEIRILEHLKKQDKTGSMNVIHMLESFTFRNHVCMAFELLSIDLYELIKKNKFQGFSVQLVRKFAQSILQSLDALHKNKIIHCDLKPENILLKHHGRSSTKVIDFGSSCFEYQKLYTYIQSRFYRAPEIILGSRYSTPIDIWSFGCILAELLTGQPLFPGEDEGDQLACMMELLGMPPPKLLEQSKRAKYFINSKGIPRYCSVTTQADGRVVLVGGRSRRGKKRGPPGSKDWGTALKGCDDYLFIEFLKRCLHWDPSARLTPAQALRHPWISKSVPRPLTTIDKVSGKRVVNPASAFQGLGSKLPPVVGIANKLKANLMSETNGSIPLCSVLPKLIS

MST4 = MST4 (Homo sapiens (Human), UniProt Q9P289)
Chain of MST4 (Q9P289 whole entry): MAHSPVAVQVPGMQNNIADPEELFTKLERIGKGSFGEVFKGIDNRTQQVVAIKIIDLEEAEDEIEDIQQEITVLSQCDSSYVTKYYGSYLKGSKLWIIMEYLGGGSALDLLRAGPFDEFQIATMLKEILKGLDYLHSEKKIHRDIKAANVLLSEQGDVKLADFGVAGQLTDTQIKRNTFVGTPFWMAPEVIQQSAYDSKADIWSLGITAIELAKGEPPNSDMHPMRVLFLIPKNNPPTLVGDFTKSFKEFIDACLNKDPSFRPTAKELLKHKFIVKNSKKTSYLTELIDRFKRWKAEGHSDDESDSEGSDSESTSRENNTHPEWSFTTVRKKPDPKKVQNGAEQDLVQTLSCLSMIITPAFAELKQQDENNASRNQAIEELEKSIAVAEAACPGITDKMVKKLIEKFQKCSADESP

PAK6 = PAK6 (Homo sapiens (Human), UniProt Q9NQU5)
JNK2 = JNK2 (Homo sapiens (Human), UniProt P45984)
CDC7/ASK = CDC7/ASK (Homo sapiens (Human), UniProt O00311)
DLK_Cascade = DLK_Cascade (Homo sapiens (Human), UniProt Q12852)
NuaK2 = NuaK2 (Homo sapiens (Human), UniProt Q9H093)
FGFR3 = FGFR3 (Homo sapiens (Human), UniProt P22607)
PEK = PEK (Homo sapiens (Human), UniProt Q9NZJ5)

SMILES: CCC1(c2ccccc2)C2=C(CC(C)(C)CC2=O)Nc2ncsc21 (stereo not shown) [Compound 1, 9-Ethyl-6,6-dimethyl-9-phenyl-5,6,7,9-tetrahydrothiazolo[4,5-b]quinolin-8(4H)-one]
- inhibition at 10 µM (PKCα): -11%
- inhibition at 10 µM (PDGFRα): -10.1%
- inhibition at 10 µM (FLT1): 6.2%
- inhibition at 10 µM (MSK1): -1%
- inhibition at 10 µM (FAK): -2%
- inhibition at 10 µM (MSK2): 0.7%
- inhibition at 10 µM (PKCγ): -7.7%
- inhibition at 10 µM (PKD2): -13.8%
- inhibition at 10 µM (KIT(V654A)): -3.5%
- inhibition at 10 µM (PKACα): -0.6%
- inhibition at 10 µM (NEK6): 20.9%
- inhibition at 10 µM (ALK(L1196M)): -5.2%
- inhibition at 10 µM (MAP2K2_Cascade): 6.4%
- inhibition at 10 µM (ALK(C1156Y)): -3.7%
- inhibition at 10 µM (AMPKα2/β1/γ1): -4.1%
- inhibition at 10 µM (MINK): 1.5%
- inhibition at 10 µM (RON): -3.9%
- inhibition at 10 µM (DDR2): 0.6%
- inhibition at 10 µM (BRAF_Cascade): 6.2%
- inhibition at 10 µM (BRSK2): -2.9%
- inhibition at 10 µM (MAP4K2): 1.1%
- inhibition at 10 µM (CK2α2/β): -11.4%
- inhibition at 10 µM (p38β): 3.8%
- inhibition at 10 µM (TRKB): 16%
- inhibition at 10 µM (ALK(R1275Q)): -8%
- inhibition at 10 µM (AurC): 8.5%
- inhibition at 10 µM (AKT2): 1%
- inhibition at 10 µM (PKCβ2): -10.7%
- inhibition at 10 µM (ABL(E255K)): -1.4%
- inhibition at 10 µM (MNK2): -2.8%
- inhibition at 10 µM (Haspin): 1.5%
- inhibition at 10 µM (DYRK3): 0.3%
- inhibition at 10 µM (MST4): -3.3%
- inhibition at 10 µM (PAK6): 3.9%
- inhibition at 10 µM (JNK2): -1.5%
- inhibition at 10 µM (CDC7/ASK): -9.1%
- inhibition at 10 µM (DLK_Cascade): 2.5%
- inhibition at 10 µM (NuaK2): 1.5%
- inhibition at 10 µM (FGFR3): 1.6%
- inhibition at 10 µM (PEK): -6%
